We go through eleven compounds from PubChem BioAssay (NCI).

Common to all, as to assay: inhibition of tumour cell growth, NCI panel, 48 h
In experiment [1] the test system is A549 NSCLC.
The test system of experiment [2] is OVCAR-4 ovarian.
Experiment [3] deals with HCC-2998 colon.
The test system of experiment [4] is TK-10 renal.
Experiment [5] concerns LOX IMVI melanoma.
Experiment [6] has as its system MCF7 breast.
Experiment [7] concerns RXF 393 renal.
For experiment [8], the system named is CCRF-CEM leukemia.
Experiment [9] has as its system MDA-MB-231 breast.
Experiment [10] has as its system NCI-H226 lung.

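Growth conditions: 96-well plates. Treatment: test compound, 48 hours, 5 concentrations. Analysis: linear interpolation between bracketing concentrations; unreached endpoints set to highest concentration. TGI denotes the concentration required for complete inhibition of growth.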 A value given as a limit tells only on which side of the number the result lay.

With `Cc1ccc(C2(c3ccc(Cl)cc3)c3ccccc3C3=NCCN32)cc1` (stereo not given), the TGI in [1] turned out to be 25.3 µM; in experiment [2], 16.9 µM; in [3] it was 18.8 µM; in experiment [4], 18.5 µM; in experiment [5], 27.7 µM; in [6], 20.5 µM. Moreover, the TGI is 10.9 µM in experiment [7], 19.5 µM in experiment [8], 19.4 µM in experiment [9] and 35.6 µM in experiment [10].
Consider `NNC(=O)CC(=O)Nc1cccc(Cl)c1`, for which the TGI in [1], in [2], in experiment [3], in experiment [4], in experiment [5] and in [6] was greater than 100 µM throughout. Besides, the TGI in experiment [7], in experiment [8], in experiment [9] and in [10] was greater than 100 µM in each case.
In the case of `NC(N)=NS(=O)(=O)c1ccc(N/N=C2/CCOC2=O)cc1`, the TGI in [1], in [2], in experiment [3], in experiment [4], in experiment [5] and in experiment [6] was greater than 100 µM each time. Besides, the TGI in experiment [7], in experiment [8], in experiment [9] and in experiment [10] was greater than 100 µM each time.
With `COc1cc(C)c(/C=C2/N=C(c3ccccc3)OC2=O)c([N+](=O)[O-])c1OC`, the TGI in experiment [1], in [2], in [3], in [4], in experiment [5] and in experiment [6] was greater than 100 µM throughout. Further, the TGI in experiment [7], in experiment [8], in experiment [9] and in experiment [10] was greater than 100 µM in each case.
With `CC(=O)c1[nH]c(NC(C)C)c(C(=S)Nc2ccccc2)c1N`, the TGI in experiment [1] was 94.3 µM; in experiment [2] it was greater than 100 µM; in experiment [3], 75.5 µM; in experiment [4] it was greater than 100 µM; in experiment [5] it was 37.8 µM; in [6], 42.2 µM. The TGI is 50.3 µM in [7], 72.9 µM in experiment [8], 66.3 µM in [9] and 60.4 µM in [10].
In the case of `Cc1cc(Cl)nc2nc(Cl)c(N)cc12`, the TGI is 37.2 µM in experiment [1]; 8.91 µM in experiment [2]; 3.59 µM in experiment [3]; 13.6 µM in [4]; 3.63 µM in [5]; greater than 22.2 µM in [6]. The TGI was greater than 32 µM in experiment [7], greater than 19.7 µM in [8], 11.5 µM in [9] and 51.7 µM in experiment [10].
As to `N#CC1(C#N)NC(c2ccccc2)C(C#N)(C#N)NC1c1ccccc1` (stereo not given), the TGI in experiment [1], in [2], in experiment [3], in experiment [4], in [5] and in experiment [6] was greater than 100 µM throughout. In addition, the TGI in [7], in experiment [8], in [9] and in experiment [10] was greater than 100 µM each time.
With `COc1cc2c(c(OC)c1OC)C(=O)[C@@H]1[C@H]2N1C(=O)NCCCl`, the TGI in experiment [1], in [2], in experiment [3], in [4], in [5] and in experiment [6] was greater than 100 µM throughout. Also, the TGI in experiment [7], in experiment [8], in [9] and in experiment [10] was greater than 100 µM throughout.
Regarding `Cc1cc(S(=O)(=O)N2CCNNC2=O)c(S)cc1Cl`, the TGI in experiment [1], in experiment [2], in experiment [3], in experiment [4], in experiment [5] and in experiment [6] was greater than 100 µM throughout. Besides, the TGI is 40.9 µM in [7], greater than 100 µM in [8], 61 µM in [9] and greater than 100 µM in experiment [10].
With `COCCN(CCNC(=O)c1cccc2c(N)c3cccc(C)c3nc12)CCOC`, the TGI worked out at 8.48 µM in experiment [1]; 6.38 µM in experiment [2]; 1.72 µM in [3]; 16.6 µM in experiment [4]; 3.27 µM in [5]; 23.3 µM in experiment [6]. Also, the TGI in [7] was 5.96 µM; in experiment [8], greater than 26.2 µM; in experiment [9], 5.43 µM; in experiment [10], 6.15 µM.
On to `O=C(Cc1ccccc1F)NC1=C(Cl)C(=O)c2ccccc2C1=O`, for which the TGI in experiment [1] was 15.7 µM; in experiment [2], 5.65 µM; in experiment [3], 15.2 µM; in experiment [4], 5.29 µM; in [5], 5.99 µM; in [6], 21.4 µM. Moreover, the TGI in [7] came to 0.816 µM; in experiment [8], 7.36 µM; in [9] it was 13.8 µM; in experiment [10] it was 6.7 µM.
